The text below walks through data of patent US20080146579A1, “TREATMENT OF PATIENTS WITH CHRONIC PULMONARY DISEASES AND NUTRITIONAL COMPOSITIONS THEREFORE” (N.V. Nutricia, priority 2006, published 2008).

For series [1] the following is noted: daily dose of 200 mg; cited from earlier work.
The test system of series [2] is pulmonary artery pressure. To be noted: in vivo studies; cited from earlier work.
The next series deals with liver cells. Briefly: in vitro experiments in liver cells, nucleotide status. It is filed as cell-based. The conditions noted are these: incubation with increasing concentrations.

In the case of `COC1=C(OC)C(=O)C(C/C=C(\C)CC/C=C(\C)CC/C=C(\C)CC/C=C(\C)CC/C=C(\C)CC/C=C(\C)CC/C=C(\C)CC/C=C(\C)CC/C=C(\C)CCC=C(C)C)=C(C)C1=O` [CoQ10, Coenzyme Q10], the “increase in plasma CoQ10 levels” value in series [1] is recorded as “more than six-fold increase”.
On to `CC(=O)N[C@@H](CS)C(=O)O` [NAC, N-acetyl cysteine], for which the “endotoxin-induced rise in pulmonary artery pressure” value in series [2] is recorded as “attenuates”.
In the case of `Nc1nc2ncc(CNc3ccc(C(=O)N[C@@H](CCC(=O)O)C(=O)O)cc3)nc2c(=O)[nH]1` [folic acid], in the series on liver cells, the nucleotide status result was “able to restore the nucleotide status”.
